{"source": "patent US12716055B2", "about": "“Treatment of disc degenerative disease and stimulation of proteoglycan synthesis by fibroblast conditioned media and formulations thereof” (FIBROBIOLOGICS, INC., priority 2019, dated 2026)", "tested_on": "Neonatal foreskin fibroblasts", "test": "EGF production in foreskin fibroblasts cultured with naltrexone and TLR agonists (ELISA)", "format": "cell-based", "details": "treatment of fibroblasts with opioid receptor antagonist, 12 hours of culture, 50% confluent", "description": "The present example characterizes the use of naltrexone and a TLR agonist to stimulate EGF production in foreskin fibroblasts as an example of a type of fibroblasts.\nNeonatal foreskin fibroblasts were obtained from ATCC and cultured in typical DMEM culture media containing 10% fetal calf serum and antibiotics. After 3 days of culture, fibroblasts where plated in 12 well plates and cultured at 50% confluent conditions. Addition of naltrexone (Sigma Aldrich®) and the indicated TLR agonists was performed for 12 hours of culture. Pam3CSK4 was added at a total concentration of 1 ug/ml. LPS was added at 0.5 ug/ml. CpG was added at 0.2 ug/ml. Concentration of EGF was assessed using ELISA (R&D Systems).", "data": [{"smiles": "O=C1CC[C@@]2(O)[C@H]3Cc4ccc(O)c5c4[C@@]2(CCN3CC2CC2)[C@H]1O5", "note": "[naltrexone]", "values": [{"measurement": "production of growth factors including EGF by fibroblasts", "value": "induce production of various growth factors including EGF"}]}]}
